# Assay results as given in US7001770B1, “Calpain inhibitors and their applications” (priority 1998, dated 2006).
# Where “and” joins values, the source holds several entries; their conditions need not be identical. Equal entries are not always repeated. Square brackets hold non-standard residues; d marks the D form. Peptide text beside a SMILES is read from it. Nle = CCCC[C@H](N)C(=O)O
# Assays:
# Assay in all cases: Apoptosis by annexin V-FITC staining, flow cytometry
# Type in all cases: cell-based
# DLD1 cells = conditions: for Percent Annexin V Positive Staining: 26 hours post treatment
# Experimental: (§1) P53 was administered to the cells by the use of the replication defective adenoviral vector ACN53 described in Wills, et al., supra. The effect of varying concentrations of rAd-p53 (from […] to 2×10^9 rAd-p53 particles/ml of solution) was investigated in combination with CI-1 in a range of 5–20 μm. The effects of individual and combination treatment was determined in the in DLD1, RKO, HLF and SK-Hep1 cells was investigated in substantial accordance with the teaching of Examples 2 and 3 herein. The percentage of apoptotic cells was determined at 17 hours post treatment (with the exception of U87 cells (24 hours) and HeLa cells (68 hours)) with annexin V positive staining. The results are presented in graphical format in FIG. 3 of the attached drawings. In brief, the results were as follows:
# (§2) The effect of an inhibitor of μ-calpains, CI-1 (N-acetyl-leu-leu-norleucinal), was investigated for its ability to enhance p53 mediated apoptosis in tumor cell lines having p53+ and p53− status listed in Table1. Each cell line was treated with 5–50 μM CI-1 for 17–26 hours. To detect a G0/G1 block, bromodeoxyuridine (BrdU) incorporation followed by flow cytometric analysis was done 17 hours post-treatment as described in Example 4 herein. […] The results of these experiments are presented in FIGS. 1 and 2 of the attached drawings. In FIG. 1, each point on the graph represents percentage annexin V positive after background percentage (DMF alone) was subtracted.
# (§3) An aliquot containing approximately 1×10^6 cells of each type was placed in a T-225 flask. The effect of varying concentrations of rAd-p53 (from 1×10^7 to 2×10^9ACN53 particles/ml of solution) was investigated in combination with CI-1 in a range of 5–20 μM. In each instance, the cell line was infected with 1×10^7–1×10^9 particles/ml of cell culture with the ACN53 using the empty cassette virus (ZZCB) as a control. In each instance, the cells were exposed to the virus for a period of one hour. At the end of this time, the virus was washed off the from the cells and fresh media containing an appropriate concentration of CI-1 was added.
# (§4) CI-1 was obtained from Boehringer-Mannheim Biochemicals (Indianapolis, Ind.). The CI-1 containing media was prepared as follows. CI-1 was diluted in dimethylformamide (DMF) to a concentration of 33.3 μM/μl. The CI-1 solution in DMF was added to achieve a final concentration in the media of 5 or 10 μM final concentration of CI-1. An equivalent volume of DMF alone was added to the control cells. Calpain inhibitor 2, N-acetyl-leu—leu-methioninal (Boehringer Mannheim) was added to cell lines at 5–50 μM final concentration with or without rAd-p53 for 26 hours.
# (§5) At a time of 17 (or 26 hours) post infection, the percentage of cells undergoing apoptosis was determined by convential apoptotic markers. Apoptosis was monitored visually by observing blebbed nuclei characteristic of apoptosis, by propidium iodide staining (using propidium iodide commercially available from Molecular Probes, Inc.) followed by flow cytometric analysis to look for subgenomic populations of cells, and by labeling cells with annexin V-FITC (commercially available from Boehringer Mannheim) in substantial accordance with the instructions provided by the manufacturer, followed by flow cytometric analysis on a FACScan Flow Cytometer (commercially available from Becton Dickinson).
# HeLa cells = conditions: for Percent Annexin V Positive Staining: 44 hours post treatment
# Experimental: as §1, §2, §3, §4, §5
# SK-Hep1 cells = conditions: for Percent Annexin V Positive Staining: 26 hours post treatment
# Experimental: as §1, §2, §3, §4, §5
# RKO cells = conditions: for Percent Annexin V Positive Staining: 26 hours post treatment
# Experimental: as §1, §2, §3, §4, §5
# HLF cells = conditions: for Percent Annexin V Positive Staining: 26 hours post treatment
# Experimental: as §1
# To quantitate the increased efficacy of rAd-p53 induced cell killing in tumor cell lines in response to CI-1 treatment, HLF cells were infected with increasing concentrations of rAd-p53 with or without 10 μM CI-1, and assayed for percentage apoptotic cells by annexin V-FITC staining 42 hours post-treatment in substantial accordance with the teaching of Example 3 herein. […] No increase in annexin V-FITC positive cells was detected at 1×10^5 particles/ml rAd-p53 with or without 10 μM CI-1. At 1×10^6 particles/ml rAd-p53, the percentage apoptotic cells without CI-1 was 14%, while 40% of annexin V positive cells was detected when cell were treated with 10 μM CI-1. At a concentration of 1×10^7 ACN53 particles/ml, 17% annexin V positive without and 63% with 10 μM CI-1 was detected. At 1×10^8 particles/ml, 52% were annexin V positive without and 70% positive with inhibitor treatment. At a dose of 1×10^9 particles of rAd-p53, however, the percentage annexin V positive was about the same for both 77% without and 74% with 10 μM CI-1. […] concentration of rAd-p53 was sufficient to induce approximately 50% cell death, while only a 1×10^7 particle/ml concentration rAd-p53 was needed to induce approximately the same percentage of cell death when 10 μM CI-1 as added.
# as §2, §3
# HLF cells were infected at increasing log concentrations of rAd-p53 ranging from 1×10^5 to 1×10^9 for one hour at which time virus was washed off and replaced with fresh media (viral infection with no treatment) or with 10 μM calpain inhibitor 1. Cells were assayed for apoptosis by annexin V-FITC staining at 24 and 42 hours post-infection.
# CI-1 was obtained from Boehringer-Mannheim Biochemicals (Indianapolis, Ind.). The CI-1 containing media was prepared as follows. CI-1 was diluted in dimethylformamide (DMF) to a concentration of 33.3 μM/μl. […]
# [1] = 10 μM CI-1, 17 hours post treatment
smiles,measurement,setting,value
"CCCC[C@@H](C=O)NC(=O)[C@H](CC(C)C)NC(=O)[C@H](CC(C)C)NC(C)=O [CI-1, N-acetyl-leu-leu-norleucinal] (Ac-Leu-Leu-[Nle]-aldehyde)",Percentage of Cells Undergoing Apoptosis,DLD1 cells; [1],15%
same,Percent Annexin V Positive Staining,DLD1 cells; CI-1 10 μM,15%
same,Percent Annexin V Positive Staining,DLD1 cells; CI-1 20 μM,17%
same,Percent Annexin V Positive Staining,DLD1 cells; CI-1 30 μM,17%
same,Percent Annexin V Positive Staining,DLD1 cells; CI-1 50 μM,18%
same,Percentage of Cells Undergoing Apoptosis,"HeLa cells; 10 μM CI-1, 68 hours post treatment",8.3%
same,Percent Annexin V Positive Staining,HeLa cells; CI-1 10 μM,28%
same,Percent Annexin V Positive Staining,HeLa cells; CI-1 20 μM,48%
same,Percent Annexin V Positive Staining,HeLa cells; CI-1 30 μM,55%
same,Percent Annexin V Positive Staining,HeLa cells; CI-1 40 μM,67%
same,Percent Annexin V Positive Staining,HeLa cells; CI-1 50 μM,80%
same,induction of apoptosis,"HeLa cells; higher concentrations of CI-1, HeLa have E6 mediated degradation of p53",induced to apoptosis
same,Percent Annexin V Positive Staining,SK-Hep1 cells; CI-1 10 μM,32%
same,Percent Annexin V Positive Staining,SK-Hep1 cells; CI-1 20 μM,66%
same,Percent Annexin V Positive Staining,SK-Hep1 cells; CI-1 30 μM,73%
same,Percent Annexin V Positive Staining,SK-Hep1 cells; CI-1 40 μM,75%
same,Percent Annexin V Positive Staining,SK-Hep1 cells; CI-1 50 μM,73%
same,Percentage of Cells Undergoing Apoptosis,"SK-Hep1 cells; [5 μM] CI-1, 17 hours post treatment",11%
same,Percent Annexin V Positive Staining,RKO cells; CI-1 10 μM,13%
same,Percent Annexin V Positive Staining,RKO cells; CI-1 20 μM,52% and 33%
same,Percent Annexin V Positive Staining,RKO cells; CI-1 50 μM,57%
same,Percentage of Cells Undergoing Apoptosis,"RKO cells; [20 μM] CI-1, 17 hours post treatment",13%
same,Percentage of Cells Undergoing Apoptosis,HLF cells; [1],7%
same,annexin V staining,"HLF cells; 10 μM CI-1 alone, 42 hours post-treatment",3%
same,Percent Annexin V Positive Staining,HLF cells; CI-1 10 μM,27%
same,Percent Annexin V Positive Staining,HLF cells; CI-1 20 μM,27%
same,Percent Annexin V Positive Staining,HLF cells; CI-1 30 μM,33%
same,Percent Annexin V Positive Staining,HLF cells; CI-1 40 μM,20%
same,Percent Annexin V Positive Staining,HLF cells; CI-1 50 μM,21%
same,decrease in the particles/ml of rAd-p53 needed to induce approximately 50% cell death,HLF cells; treatment with 10 μM CI-1 at 42 hours,approximately two log decrease
